Reference: ChEMBL document CHEMBL4715885, “Novel dual LSD1/HDAC6 inhibitors for the treatment of multiple myeloma” (Bioorg Med Chem Lett, 2021)
In brackets after ≈: the same amount, converted by molar mass. Activity calls are given as the source filed them. The rule behind the calls is not given here.

Experiments:
[1] = Half life in Balb/c mouse at 50 mg/kg, po; format: ADME, organism-based; conditions: in vivo
[2] = Cmax in Balb/c mouse at 50 mg/kg, po; format: ADME, organism-based; design: route oral, dose 50 mg/kg; conditions: in vivo
[3] = Half life in Balb/c mouse at 10 mg/kg, iv; format: ADME, organism-based; conditions: in vivo
[4] = Oral bioavailability in Balb/c mouse at 50 mg/kg; format: ADME, organism-based; conditions: in vivo
[5] = Antiproliferative activity against human MM1.R cells assessed as reduction in cell viability after 144 hrs; format: functional, cell-based; conditions: MM.1R
[6] = Permeability from apical to basolateral side in human Caco2 cells; format: ADME, cell-based; conditions: Caco-2, read-out: permeability
[7] = target: Voltage-gated inwardly rectifying potassium channel KCNH2 (Homo sapiens, UniProt Q12809); test: Inhibition of human ERG
Voltage-gated inwardly rectifying potassium channel KCNH2, sequence (Q12809 whole entry): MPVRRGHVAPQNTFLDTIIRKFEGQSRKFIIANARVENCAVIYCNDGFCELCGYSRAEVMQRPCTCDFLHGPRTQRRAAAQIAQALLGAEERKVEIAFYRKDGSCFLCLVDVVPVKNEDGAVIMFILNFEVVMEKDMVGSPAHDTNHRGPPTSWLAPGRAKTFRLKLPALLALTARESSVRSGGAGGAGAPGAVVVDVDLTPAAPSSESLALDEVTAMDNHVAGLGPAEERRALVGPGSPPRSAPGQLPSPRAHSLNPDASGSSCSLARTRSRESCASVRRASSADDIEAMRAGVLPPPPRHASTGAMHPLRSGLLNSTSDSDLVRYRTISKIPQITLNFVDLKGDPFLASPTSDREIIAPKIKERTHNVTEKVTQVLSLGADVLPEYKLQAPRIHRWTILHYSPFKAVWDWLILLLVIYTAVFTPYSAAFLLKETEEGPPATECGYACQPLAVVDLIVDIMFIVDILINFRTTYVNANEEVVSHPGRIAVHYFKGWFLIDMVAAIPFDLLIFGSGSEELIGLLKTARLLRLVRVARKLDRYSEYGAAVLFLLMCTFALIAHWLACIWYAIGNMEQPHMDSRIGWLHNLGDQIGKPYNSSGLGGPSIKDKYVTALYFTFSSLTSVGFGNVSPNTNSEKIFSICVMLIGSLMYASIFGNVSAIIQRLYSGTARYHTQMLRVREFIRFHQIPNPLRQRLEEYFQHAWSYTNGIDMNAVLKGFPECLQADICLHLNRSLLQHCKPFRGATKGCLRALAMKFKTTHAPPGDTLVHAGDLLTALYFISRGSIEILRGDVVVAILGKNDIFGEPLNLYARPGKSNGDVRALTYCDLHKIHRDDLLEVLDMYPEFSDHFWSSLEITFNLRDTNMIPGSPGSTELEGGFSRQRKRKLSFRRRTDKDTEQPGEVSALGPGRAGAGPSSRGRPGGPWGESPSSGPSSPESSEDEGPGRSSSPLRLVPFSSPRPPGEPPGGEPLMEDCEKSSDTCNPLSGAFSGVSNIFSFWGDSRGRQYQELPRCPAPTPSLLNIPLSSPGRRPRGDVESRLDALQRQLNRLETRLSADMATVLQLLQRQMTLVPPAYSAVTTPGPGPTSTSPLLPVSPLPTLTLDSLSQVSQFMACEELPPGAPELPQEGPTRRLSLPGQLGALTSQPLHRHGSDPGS

[8] = Toxicity in SCID mouse xenografted with human MM1.S cells assessed as induction of body weight loss at 50 mg/kg, po dosed daily for 12 days; format: organism-based; conditions: in vivo, 288 h, time 12 day
[9] = Cmax in Balb/c mouse at 10 mg/kg, iv; format: ADME, organism-based; design: route intravenous, dose 10 mg/kg; conditions: in vivo
CYP2D6 = CYP2D6 (Homo sapiens, UniProt P10635); test: Inhibition of CYP2D6 (unknown origin) at 10 uM relative to control; format: ADME
CYP2D6, sequence (P10635 whole entry): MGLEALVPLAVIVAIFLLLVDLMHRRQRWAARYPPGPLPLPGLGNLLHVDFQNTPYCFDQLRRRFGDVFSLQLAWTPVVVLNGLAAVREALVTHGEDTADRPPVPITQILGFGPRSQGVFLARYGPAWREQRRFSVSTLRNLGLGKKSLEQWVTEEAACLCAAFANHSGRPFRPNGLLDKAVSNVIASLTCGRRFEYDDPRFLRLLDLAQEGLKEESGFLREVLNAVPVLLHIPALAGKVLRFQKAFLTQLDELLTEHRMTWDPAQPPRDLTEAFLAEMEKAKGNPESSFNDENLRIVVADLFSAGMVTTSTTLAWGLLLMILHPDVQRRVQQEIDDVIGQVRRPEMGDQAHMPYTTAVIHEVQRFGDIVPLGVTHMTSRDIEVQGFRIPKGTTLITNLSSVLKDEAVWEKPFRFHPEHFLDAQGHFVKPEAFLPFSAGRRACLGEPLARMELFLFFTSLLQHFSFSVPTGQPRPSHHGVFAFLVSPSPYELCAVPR

[10] = Clearance in Balb/c mouse at 50 mg/kg, po; format: ADME, organism-based; conditions: in vivo
MM1.S [11] = test: Antitumour activity against human MM1.S cells xenografted in SCID mouse assessed as tumour growth inhibition at 25 mg/kg, po for 12 days relative to control; format: functional; conditions: 288 h, time 12 day, read-out: TGI
CYP3A4 = CYP3A4 (Homo sapiens, UniProt P08684); test: Inhibition of CYP3A4 (unknown origin) at 10 uM relative to control; format: ADME
CYP3A4, sequence (P08684 whole entry): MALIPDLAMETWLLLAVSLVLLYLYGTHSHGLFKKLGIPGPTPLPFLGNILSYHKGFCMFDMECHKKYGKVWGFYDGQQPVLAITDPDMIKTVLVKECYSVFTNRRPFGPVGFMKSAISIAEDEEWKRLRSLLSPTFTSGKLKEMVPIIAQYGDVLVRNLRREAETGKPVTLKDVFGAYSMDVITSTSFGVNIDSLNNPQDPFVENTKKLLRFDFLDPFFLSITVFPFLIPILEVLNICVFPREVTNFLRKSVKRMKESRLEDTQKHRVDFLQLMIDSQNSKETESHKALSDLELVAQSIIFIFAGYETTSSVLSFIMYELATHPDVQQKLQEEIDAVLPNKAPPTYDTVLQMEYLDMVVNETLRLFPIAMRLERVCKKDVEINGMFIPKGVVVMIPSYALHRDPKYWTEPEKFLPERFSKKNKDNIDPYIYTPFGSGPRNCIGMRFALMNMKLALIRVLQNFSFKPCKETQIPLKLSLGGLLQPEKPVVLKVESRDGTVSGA

[12] = AUC (0 to t) in Balb/c mouse at 10 mg/kg, iv; format: ADME, organism-based; design: dose 10 mg/kg; conditions: in vivo
[13] = Drug concentration in plasma of mouse xenografted with human MM1.S cells at 50 mg/kg, po dosed daily for 12 days; format: ADME, organism-based; conditions: time 12 day
[14] = Stability in mouse liver microsomes assessed as parent compound remaining measured after 30 mins; format: ADME, Microsome; conditions: microsomes, 0.5 h
[15] = Permeability from basolateral to apical side in human Caco2 cells; format: ADME, cell-based; conditions: Caco-2, read-out: permeability
[16] = Stability in human liver microsomes assessed as parent compound remaining measured after 30 mins; format: ADME, Microsome; conditions: microsomes, 0.5 h
[17] = target: T1, Polyamine deacetylase HDAC10 (Homo sapiens, UniProt Q969S8); test: Inhibition of HDAC10 (unknown origin)
T1 sequence (Q969S8 whole entry): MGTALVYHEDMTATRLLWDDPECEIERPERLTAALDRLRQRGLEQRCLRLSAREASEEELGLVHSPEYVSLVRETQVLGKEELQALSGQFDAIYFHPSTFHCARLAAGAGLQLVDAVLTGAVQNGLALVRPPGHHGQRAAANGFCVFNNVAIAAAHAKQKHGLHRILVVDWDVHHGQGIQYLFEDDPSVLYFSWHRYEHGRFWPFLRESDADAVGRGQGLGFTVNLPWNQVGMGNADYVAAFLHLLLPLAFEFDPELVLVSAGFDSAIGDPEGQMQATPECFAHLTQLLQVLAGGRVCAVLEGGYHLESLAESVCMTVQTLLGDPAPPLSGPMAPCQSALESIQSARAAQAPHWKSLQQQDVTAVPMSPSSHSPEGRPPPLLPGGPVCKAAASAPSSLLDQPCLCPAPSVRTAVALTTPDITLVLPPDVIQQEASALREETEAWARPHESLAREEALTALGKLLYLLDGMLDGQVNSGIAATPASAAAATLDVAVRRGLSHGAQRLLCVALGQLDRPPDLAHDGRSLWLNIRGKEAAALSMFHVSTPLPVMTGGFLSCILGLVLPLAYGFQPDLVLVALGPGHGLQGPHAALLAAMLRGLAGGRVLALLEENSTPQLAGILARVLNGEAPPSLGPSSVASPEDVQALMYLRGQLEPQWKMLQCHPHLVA

[18] = target: T2, Amine oxidase [flavin-containing] B (Homo sapiens, UniProt P27338); test: Inhibition of MAO-B (unknown origin)
T2 sequence (P27338 whole entry): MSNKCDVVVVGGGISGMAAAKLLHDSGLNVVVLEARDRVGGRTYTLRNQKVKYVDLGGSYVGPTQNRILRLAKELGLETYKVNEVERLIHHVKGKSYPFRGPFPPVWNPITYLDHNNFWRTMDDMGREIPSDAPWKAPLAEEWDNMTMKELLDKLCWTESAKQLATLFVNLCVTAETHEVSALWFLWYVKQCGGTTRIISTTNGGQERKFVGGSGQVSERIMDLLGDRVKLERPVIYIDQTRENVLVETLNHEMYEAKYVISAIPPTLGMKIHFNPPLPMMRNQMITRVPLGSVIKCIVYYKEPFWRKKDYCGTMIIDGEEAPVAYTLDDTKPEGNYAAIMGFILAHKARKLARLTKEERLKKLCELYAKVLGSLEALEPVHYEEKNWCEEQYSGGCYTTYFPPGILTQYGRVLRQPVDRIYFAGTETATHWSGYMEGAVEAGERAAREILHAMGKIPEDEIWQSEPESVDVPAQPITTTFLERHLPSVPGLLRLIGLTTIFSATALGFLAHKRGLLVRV

[19] = Protein binding in plasma (unknown origin) assessed as unbound fraction; format: ADME, cell-free
[20] = Volume of distribution in Balb/c mouse at 50 mg/kg, po; format: ADME, organism-based; conditions: in vivo
[21] = target: T3, Amine oxidase [flavin-containing] A (Homo sapiens, UniProt P21397); test: Inhibition of MAO-A (unknown origin)
T3 sequence (P21397 whole entry): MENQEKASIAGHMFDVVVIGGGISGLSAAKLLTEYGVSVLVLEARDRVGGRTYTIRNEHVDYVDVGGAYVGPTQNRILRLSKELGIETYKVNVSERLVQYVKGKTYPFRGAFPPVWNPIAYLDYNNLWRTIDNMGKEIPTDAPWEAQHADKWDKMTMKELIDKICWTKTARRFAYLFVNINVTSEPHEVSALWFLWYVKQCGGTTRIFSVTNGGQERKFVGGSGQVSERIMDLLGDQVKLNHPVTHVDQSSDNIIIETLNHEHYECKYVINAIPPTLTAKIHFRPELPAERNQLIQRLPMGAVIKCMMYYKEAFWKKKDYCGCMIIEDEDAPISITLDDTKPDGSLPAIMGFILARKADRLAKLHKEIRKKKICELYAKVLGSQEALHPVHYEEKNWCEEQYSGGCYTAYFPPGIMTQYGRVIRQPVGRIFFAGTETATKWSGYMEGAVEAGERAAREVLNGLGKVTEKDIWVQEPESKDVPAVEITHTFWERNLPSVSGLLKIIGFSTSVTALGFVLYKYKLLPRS

[22] = Initial plasma concentration in Balb/c mouse at 50 mg/kg, po; format: ADME, organism-based; conditions: in vivo
[23] = Drug concentration in tumour of mouse xenografted with human MM1.S cells at 50 mg/kg, po dosed daily for 12 days; format: ADME, organism-based, Neoplasm; conditions: time 12 day, read-out: Drug uptake
[24] = Solubility of compound; format: physicochemical
[25] = Inhibition of HDAC phosphorylation (unknown origin); design: species or system Homo sapiens
RPMI-8226 = test: Antiproliferative activity against human RPMI-8226 cells assessed as reduction in cell viability after 144 hrs; format: functional, cell-based; conditions: RPMI-8226, 144 h
MM1.S [26] = test: Antiproliferative activity against human MM1.S cells assessed as reduction in cell viability after 144 hrs; format: functional, cell-based
MM1.S [27] = test: Antiproliferative activity against human MM1.S cells assessed as reduction in cell viability at 10 uM after 144 hrs relative to control; format: functional
[28] = target: T4, Protein deacetylase HDAC6 (Homo sapiens, UniProt Q9UBN7); test: Inhibition of human HDAC6 (unknown origin) using RHKKAc as substrate by fluorescence method
T4 sequence (Q9UBN7 whole entry): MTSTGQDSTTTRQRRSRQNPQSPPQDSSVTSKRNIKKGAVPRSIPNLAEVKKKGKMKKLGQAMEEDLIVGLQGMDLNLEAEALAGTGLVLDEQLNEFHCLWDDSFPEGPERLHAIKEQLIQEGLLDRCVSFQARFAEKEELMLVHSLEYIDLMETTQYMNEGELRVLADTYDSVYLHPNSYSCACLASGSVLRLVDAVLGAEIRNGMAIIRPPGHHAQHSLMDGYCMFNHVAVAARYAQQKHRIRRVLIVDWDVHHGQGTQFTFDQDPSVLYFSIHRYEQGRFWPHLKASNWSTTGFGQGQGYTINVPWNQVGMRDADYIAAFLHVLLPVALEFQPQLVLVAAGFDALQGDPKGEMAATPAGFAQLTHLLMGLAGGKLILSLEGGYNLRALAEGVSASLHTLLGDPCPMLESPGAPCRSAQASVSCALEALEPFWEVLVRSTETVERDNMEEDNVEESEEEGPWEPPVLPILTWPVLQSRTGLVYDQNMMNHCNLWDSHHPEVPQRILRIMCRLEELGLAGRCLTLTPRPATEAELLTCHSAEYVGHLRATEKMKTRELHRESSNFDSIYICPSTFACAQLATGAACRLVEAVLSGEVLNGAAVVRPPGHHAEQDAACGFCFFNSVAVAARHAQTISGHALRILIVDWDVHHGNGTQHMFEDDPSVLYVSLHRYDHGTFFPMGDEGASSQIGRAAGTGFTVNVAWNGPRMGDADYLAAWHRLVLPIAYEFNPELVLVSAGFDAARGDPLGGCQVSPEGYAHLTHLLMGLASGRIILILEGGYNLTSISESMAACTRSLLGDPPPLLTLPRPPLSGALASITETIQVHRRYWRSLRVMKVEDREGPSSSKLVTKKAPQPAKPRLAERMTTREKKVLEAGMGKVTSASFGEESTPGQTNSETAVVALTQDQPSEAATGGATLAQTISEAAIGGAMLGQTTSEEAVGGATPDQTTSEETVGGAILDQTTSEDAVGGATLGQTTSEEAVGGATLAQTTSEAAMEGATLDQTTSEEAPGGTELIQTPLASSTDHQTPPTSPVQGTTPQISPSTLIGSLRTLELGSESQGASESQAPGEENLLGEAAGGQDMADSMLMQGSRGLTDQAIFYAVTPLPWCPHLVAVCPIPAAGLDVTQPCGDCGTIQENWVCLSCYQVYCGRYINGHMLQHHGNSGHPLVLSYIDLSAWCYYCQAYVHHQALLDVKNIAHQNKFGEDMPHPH

[29] = target: Histone deacetylase 1 (Homo sapiens) (UniProt Q13547); test: Inhibition of human HDAC1 at 1uM using RHKKAc as substrate by fluorescence method relative to control
Histone deacetylase 1 (Homo sapiens), sequence (Q13547 whole entry): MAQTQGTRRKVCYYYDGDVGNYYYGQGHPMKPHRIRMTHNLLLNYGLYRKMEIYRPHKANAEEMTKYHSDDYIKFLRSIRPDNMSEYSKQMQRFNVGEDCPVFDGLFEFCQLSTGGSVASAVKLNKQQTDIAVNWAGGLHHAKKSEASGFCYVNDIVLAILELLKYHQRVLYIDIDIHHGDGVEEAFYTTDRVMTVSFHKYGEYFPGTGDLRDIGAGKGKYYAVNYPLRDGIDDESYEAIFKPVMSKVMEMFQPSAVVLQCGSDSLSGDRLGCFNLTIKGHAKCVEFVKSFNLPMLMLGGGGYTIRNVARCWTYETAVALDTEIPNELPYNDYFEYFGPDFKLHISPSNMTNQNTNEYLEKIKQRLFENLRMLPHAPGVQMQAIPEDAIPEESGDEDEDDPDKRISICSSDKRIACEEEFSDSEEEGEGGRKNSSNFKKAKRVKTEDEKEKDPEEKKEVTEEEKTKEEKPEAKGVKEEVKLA

For `O=C(NO)c1ccc(CCCN2CCC(CN[C@H]3C[C@@H]3c3ccccc3)CC2)cc1` (racemic), the half-life [1] was 2.5 h, the Cmax [2] was 904 ng/mL and the half-life [3] was 3.3 h. The bioavailability [4] was 44%, the EC50 [5] was 0.006 µM and the Papp A→B [6] was 2.67 ×10⁻⁶ cm/s. For the same compound, the IC50 [7] was 5.6 µM, the Activity [8] was “Non-Toxic” and the Cmax [9] was 821 ng/mL. It also gave an inhibition at 10 µM (CYP2D6) of 54%, a CL/F [10] of 233 mL/min/kg and an inhibition in vivo at 25 mg/kg (MM1.S [11]) of 67%. For the same compound, the inhibition at 10 µM (CYP3A4) was 11%, the AUC(0-t) [12] was 1520 ng·h/mL and the concentration at 288 h [13] was 52 ng/mL. For the same compound, the Stabilty [14] was 56%, the Papp B→A [15] was 9.6 ×10⁻⁶ cm/s and the Stabilty [16] was 40%. The IC50 [17] was > 10 µM, the IC50 [18] was 6.6 µM and the fraction unbound [19] was 0.45. For the same compound, the Vd [20] was 66 L/kg, the IC50 [21] was 8.6 µM and the C0 [22] was 1406 ng/mL. It also gave a concentration at 288 h [23] of 216 ng/mL, a solubility [24] of 110 µM (≈ 44.8 µg/mL) and an IC50 [25] of 1.78 µM. For the same compound, the EC50 (RPMI-8226) was 0.28 µM.

With `Cl.Cl.NC1CCC(N[C@@H]2C[C@H]2c2ccccc2)CC1` (some centres not stated) the EC50 (MM1.S [26]) was > 10 µM, the Activity (MM1.S [27]) was 30% and the IC50 [28] was “Not Active”. The inhibition [29] was “inactive”.
